Experimental data: US20260001928A1 (CORTERIA PHARMACEUTICALS, priority 2022, published 2026)
*1 amine or outer side, *2 acyl side, *3 side chain or, on linkers, in order; H or OH if unused. Where a SMILES comes first, the peptide text is derived from it. Side-chain parts run from the residue outwards. [ ]: non-standard residue; d: D form. The star is where a group is joined. C20 diacid = O=C(O)CCCCCCCCCCCCCCCCCCC(=O)*; C18 diacid = O=C(O)CCCCCCCCCCCCCCCCC(=O)*; C16 diacid = O=C(O)CCCCCCCCCCCCCCC(=O)*; γGlu = O=C(O)[C@H](CCC(=O)[*:2])N[*:1]; αMeK = C[C@](N)(CCCCN)C(=O)O; AEEA = NCCOCCOCC(=O)O; Aib = CC(C)(N)C(=O)O

Experiments:
[1] = target: T1, human CRF2a receptor (Homo sapiens, UniProt Q13324); experiment: Activity at human CRF2a receptor, cAMP functional assay in TeloHEAC cells; assay type: cell-based; settings: TeloHEAC cells stably expressing human CRF2a receptor, relative to urocortin 2 (100 nM = 100%)
T1 construct: expressed in transfected cells; host or cells: TeloHEAC cells
T1 sequence (Q13324 1-411): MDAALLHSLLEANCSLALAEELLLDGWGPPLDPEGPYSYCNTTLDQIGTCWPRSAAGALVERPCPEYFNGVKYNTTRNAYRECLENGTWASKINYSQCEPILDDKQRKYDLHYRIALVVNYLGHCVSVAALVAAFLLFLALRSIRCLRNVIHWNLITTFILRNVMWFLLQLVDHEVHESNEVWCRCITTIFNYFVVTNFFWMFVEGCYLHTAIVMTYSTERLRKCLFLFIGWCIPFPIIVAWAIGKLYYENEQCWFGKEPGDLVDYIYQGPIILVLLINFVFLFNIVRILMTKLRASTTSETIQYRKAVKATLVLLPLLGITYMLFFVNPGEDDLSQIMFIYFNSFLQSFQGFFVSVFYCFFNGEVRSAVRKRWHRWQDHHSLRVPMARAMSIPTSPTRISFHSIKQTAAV
Summary of the method: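 cAMP accumulation was measured by HTRF 665/620 nm ratio after 30 min at 37° C compound exposure (16 twofold dilutions) of CRF2a-expressing TeloHEAC cells, 10000/well, in HEPES-buffered HBSS plus IBMX. Activity was normalised to urocortin 2 at 100 nM (100%), and EC50 was the concentration giving half-maximal activation.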

[2] = Chemical stability in buffer (pH 7.4 / pH 4.5), % purity loss; assay type: physicochemical; settings: 40° C. vs 5° C., 14 or 28 days; for Buffer stability pH 4.5 % purity loss: 100 mM acetate buffer pH 4.5; for Buffer stability pH 7.4 % purity loss: 100 mM phosphate buffer pH 7.4
Protocol: Solubility and chemical stability were studied in 100 mM phosphate buffer (pH 7.4) and 100 mM acetate buffer (pH 4.5). Test compound powders were dissolved in both buffers at a target concentration of 10 mg/mL and incubated for 1 hour at room temperature. After centrifugation at 2500 rcf for 15 minutes, 10 μL of supernatant was diluted with 190 μL of the incubation buffer and analyzed by LC-UV (Acquity UPLC-DAD, Waters). Solubility was calculated by comparing the peak area of the test compound in the buffer sample with the peak area of the same compound dissolved at 0.5 mg/mL in water:acetonitrile 1:1, 0.1% formic acid.
From the centrifuged supernatant, two additional 80 μL aliquots were collected and diluted with 160 μL of incubation buffer. One aliquot was stored at 5° C., while the other was stored at 40° C. After 14 or 28 days, the samples were analyzed by LC-UV. Chemical stability was calculated as % loss using the following equations: […]

[3] = target: T2, CFR1R receptor (Homo sapiens, UniProt P34998); experiment: Activity at anti-target CFR1R receptor, cAMP assay in CRF1R-overexpression CHO-K1 cells; assay type: cell-based; settings: 100% = Sauvagine at 100 nM; for EC50: cAMP
T2 construct: host or cells: CHO-K1 (clone 2)
T2 sequence (P34998 24-415): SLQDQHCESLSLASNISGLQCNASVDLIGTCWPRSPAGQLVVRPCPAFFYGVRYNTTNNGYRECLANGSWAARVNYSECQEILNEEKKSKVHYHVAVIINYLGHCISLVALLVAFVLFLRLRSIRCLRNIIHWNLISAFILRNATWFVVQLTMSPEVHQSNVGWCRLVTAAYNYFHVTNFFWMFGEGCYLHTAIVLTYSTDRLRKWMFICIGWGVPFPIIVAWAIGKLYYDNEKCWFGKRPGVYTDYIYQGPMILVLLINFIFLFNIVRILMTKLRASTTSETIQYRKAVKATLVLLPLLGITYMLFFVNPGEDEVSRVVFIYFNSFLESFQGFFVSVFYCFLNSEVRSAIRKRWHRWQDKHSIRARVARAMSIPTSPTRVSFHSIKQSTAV
Summary of the method: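 Clone 2; cryopreserved stocks (10% DMSO); 4000 cells/well final; 100% activation = Sauvagine 100 nM; otherwise as TeloHAEC protocol.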

[4] = system: Sprague Dawley rats; experiment: Effect on systolic blood pressure, telemetry in Sprague Dawley rats; assay type: in vivo, rat; settings: 0.1 mg/kg SC
Protocol: The effect of the compounds on systolic blood pressure was determined in telemetry studies in Sprague Dawley rats at a dosage of 0.1 mg/kg SC.
The rats were previously implanted with a telemetry device (DSI, Saint-Paul, USA, HD-S10, HD-S11 or HD S21) and allowed to recover for a minimum period of 2 weeks before treatment with vehicle or the different peptides. Blood pressure (BP) was recorded through a catheter inserted into the abdominal aorta. The device body was placed in the abdomen. The animals were allowed to recover from surgery for at least 10 days before the first administration of test drug or vehicle.
The chronically instrumented rats of the telemetry studies were individually housed immediately after surgery and then housed in pairs with a non-instrumented companion after recovery.
Systolic blood pressure was recorded for one hour before treatment (basal period). Thereafter, the subcutaneous administration of the test compound or its vehicle was performed, under continuous recording of the signal up to 48 hours, analysed and expressed as % change from baseline.
Representative data are presented in Table 13 below, in which “Duration of action” indicates the last time point for which an effect on BP was still observed (n=2 animals/peptide)

| EC50 [1] [nM] | Buffer stability pH 4.5 % purity loss [2] | Buffer stability pH 7.4 % purity loss [2] [%] | Emax (% I) [3] [% I] | EC50 [3] [nM] | SMILES | Systolic blood pressure (Mean) % change from baseline, 8 h ([4]; 8 h, n=2) [%] | Systolic blood pressure (Mean) % change from baseline, 12 h ([4]; 12 h, n=2) [%] | Systolic blood pressure (Mean) % change from baseline, 24 h ([4]; 24 h, n=2) [%] | Duration of action ([4]; last time point with an effect on BP still observed) [h] |
| --- | --- | --- | --- | --- | --- | --- | --- | --- | --- |
| 1.61 | 0% | 4.5 | 0 | > 250 | CC[C@H](C)[C@H](NC(=O)[C@H](CCC(N)=O)NC(=O)[C@H](CCCCN)NC(=O)[C@H](CC(N)=O)NC(=O)[C@@H](NC(=O)[C@H](CCC(=O)O)NC(=O)[C@H](C)NC(=O)[C@H](CCC(N)=O)NC(=O)[C@H](CCC(=O)O)NC(=O)[C@H](CCCNC(=N)N)NC(=O)[C@H](CCC(N)=O)NC(=O)[C@H](CCCCN)NC(=O)[C@H](CCCCN)NC(=O)[C@H](CCC(N)=O)NC(=O)[C@H](CCCCN)NC(=O)[C@H](CCC(=O)O)NC(=O)[C@H](CCC(N)=O)NC(=O)[C@H](CCC(=O)O)NC(=O)[C@H](CC(C)C)NC(=O)[C@H](CC(C)C)NC(=O)[C@@H](NC(=O)[C@H](CCCCN)NC(=O)[C@H](CCCCNC(=O)CC[C@H](NC(=O)CCCCCCCCCCCCCCC(=O)O)C(=O)O)NC(=O)[C@H](CC(C)C)NC(=O)[C@H](CCCCN)NC(=O)[C@@H](NC(=O)[C@@H]1CCCN1C(=O)[C@H](NC(=O)[C@H](CC(=O)O)NC(=O)[C@H](CC(C)C)NC(=O)[C@H](CO)NC(=O)[C@H](CC(C)C)NC(=O)[C@@H](N)C(C)C)C(C)C)[C@@H](C)CC)[C@@H](C)CC)[C@@H](C)O)C(=O)N[C@@H](CC(C)C)C(=O)N[C@@H](C)C(=O)N[C@@H](CCC(N)=O)C(=O)N[C@H](C(N)=O)C(C)C [compound 34] (H-VLSLD[dV]PIKLK([γGlu-C16 diacid])KILLEQEKQKKQREQAETNKQILAQV-NH2) | – | – | – | – |
| 0.12 | nd/0 ^ % | – | 20 | > 250 | CC[C@H](C)[C@H](NC(C)=O)C(=O)N[C@H](C(=O)N[C@@H](CC(C)C)C(=O)N[C@@H](CO)C(=O)N[C@@H](CC(C)C)C(=O)N[C@@H](CC(=O)O)C(=O)N[C@@H](C(=O)N1CCC[C@H]1C(=O)N[C@H](C(=O)N[C@@H](CCCCN)C(=O)N[C@@H](CC(C)C)C(=O)N[C@@H](CCCCNC(=O)CC[C@H](NC(=O)CCCCCCCCCCCCCCC(=O)O)C(=O)O)C(=O)N[C@@H](CCCCN)C(=O)N[C@H](C(=O)N[C@@H](CC(C)C)C(=O)N[C@@H](CC(C)C)C(=O)N[C@@H](CCC(=O)O)C(=O)N[C@@H](CCC(N)=O)C(=O)N[C@@H](CCC(=O)O)C(=O)N[C@@H](CCCCN)C(=O)N[C@@H](CCC(N)=O)C(=O)N[C@@H](CCCCN)C(=O)N[C@@H](CCCCN)C(=O)N[C@@H](CCC(N)=O)C(=O)N[C@@H](CCCNC(=N)N)C(=O)N[C@@H](CCC(=O)O)C(=O)N[C@@H](CCC(N)=O)C(=O)N[C@@H](C)C(=O)N[C@@H](CCC(=O)O)C(=O)N[C@H](C(=O)N[C@@H](CC(N)=O)C(=O)N[C@@](C)(CCCCN)C(=O)N[C@@H](CCC(N)=O)C(=O)N[C@H](C(=O)N[C@@H](CC(C)C)C(=O)N[C@@H](C)C(=O)N[C@@H](CCC(N)=O)C(=O)N[C@H](C(N)=O)C(C)C)[C@@H](C)CC)[C@@H](C)O)[C@@H](C)CC)[C@@H](C)CC)C(C)C)C(C)C [compound 54] (Ac-IVLSLD[dV]PIKLK([γGlu-C16 diacid])KILLEQEKQKKQREQAETN[αMeK]QILAQV-NH2) | – | – | – | – |
| 2.3 | 0% | 16.8 | 5 | > 250 | CC[C@H](C)[C@H](NC(=O)[C@H](CCC(N)=O)NC(=O)[C@H](CCCCN)NC(=O)[C@H](CC(N)=O)NC(=O)[C@@H](NC(=O)[C@H](CCC(=O)O)NC(=O)[C@H](C)NC(=O)[C@H](CCC(N)=O)NC(=O)[C@H](CCC(=O)O)NC(=O)[C@H](CCCNC(=N)N)NC(=O)[C@H](CCC(N)=O)NC(=O)[C@H](CCCCN)NC(=O)[C@H](CCCCN)NC(=O)[C@H](CCC(N)=O)NC(=O)[C@H](CCCCN)NC(=O)[C@H](CCC(=O)O)NC(=O)[C@H](CCC(N)=O)NC(=O)[C@H](CCC(=O)O)NC(=O)[C@H](CC(C)C)NC(=O)[C@H](CC(C)C)NC(=O)[C@@H](NC(=O)[C@H](CCCCN)NC(=O)[C@H](CCCCNC(=O)COCCOCCNC(=O)COCCOCCNC(=O)CC[C@H](NC(=O)CCCCCCCCCCCCCCCCC(=O)O)C(=O)O)NC(=O)[C@H](CC(C)C)NC(=O)[C@H](CCCCN)NC(=O)[C@@H](NC(=O)[C@@H]1CCCN1C(=O)[C@H](NC(=O)[C@H](CC(=O)O)NC(=O)[C@H](CC(C)C)NC(=O)[C@H](CO)NC(=O)[C@H](CC(C)C)NC(=O)[C@@H](NC(C)=O)C(C)C)C(C)C)[C@@H](C)CC)[C@@H](C)CC)[C@@H](C)O)C(=O)N[C@@H](CC(C)C)C(=O)N[C@@H](C)C(=O)N[C@@H](CCC(N)=O)C(=O)N[C@H](C(N)=O)C(C)C [compound 92] (Ac-VLSLD[dV]PIKLK([AEEA-AEEA-γGlu-C18 diacid])KILLEQEKQKKQREQAETNKQILAQV-NH2) | – | – | – | – |
| 0.16 | – | – | 30 | > 250 | CC[C@H](C)[C@H](NC(C)=O)C(=O)N[C@H](C(=O)N[C@@H](CC(C)C)C(=O)N[C@@H](CO)C(=O)N[C@@H](CC(C)C)C(=O)N[C@@H](CC(=O)O)C(=O)N[C@@H](C(=O)N1CCC[C@H]1C(=O)N[C@H](C(=O)N[C@@H](CCCCN)C(=O)N[C@@H](CC(C)C)C(=O)N[C@@H](CCCCNC(=O)COCCOCCNC(=O)CC[C@H](NC(=O)CCCCCCCCCCCCCCCCCCC(=O)O)C(=O)O)C(=O)N[C@@H](CCCCN)C(=O)N[C@H](C(=O)N[C@@H](CC(C)C)C(=O)N[C@@H](CC(C)C)C(=O)N[C@@H](CCC(=O)O)C(=O)N[C@@H](CCC(N)=O)C(=O)N[C@@H](CCC(=O)O)C(=O)N[C@@H](CCCCN)C(=O)N[C@@H](CCC(N)=O)C(=O)N[C@@H](CCCCN)C(=O)N[C@@H](CCCCN)C(=O)N[C@@H](CCC(N)=O)C(=O)N[C@@H](CCCNC(=N)N)C(=O)N[C@@H](CCC(=O)O)C(=O)N[C@@H](CCC(N)=O)C(=O)N[C@@H](C)C(=O)N[C@@H](CCC(=O)O)C(=O)N[C@H](C(=O)N[C@@H](CC(N)=O)C(=O)NC(C)(C)C(=O)N[C@@H](CCC(N)=O)C(=O)N[C@H](C(=O)N[C@@H](CC(C)C)C(=O)N[C@@H](C)C(=O)N[C@@H](CCC(N)=O)C(=O)N[C@H](C(N)=O)C(C)C)[C@@H](C)CC)[C@@H](C)O)[C@@H](C)CC)[C@@H](C)CC)C(C)C)C(C)C [compound 230] (Ac-IVLSLD[dV]PIKLK([AEEA-γGlu-C20 diacid])KILLEQEKQKKQREQAETN[Aib]QILAQV-NH2) | −15 | −16 | 3 | 23 |
